# Source: the supplement of paper PMC12463676, “Small-molecule dissolution of stress granules by redox modulation benefits ALS models” (Nature Chemical Biology, 2025)
# Assays:
# [1] = compound: NC(=O)CCCCC1CCSS1 [lipoamide]; assay: thermal stability z-score vs DMSO; higher = more thermally stabilized by treatment; conditions: HeLa, lipoamide concentration 100 µM
# Method: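 Cellular thermal proteome profiling in HeLa cells. Cells were treated with 100 µM lipoamide for 1 h, with or without 1 mM arsenate for a further 1 h, then heated to ten temperatures (37-66.3 °C), and soluble protein was quantified by TMT mass spectrometry relative to 0.1% DMSO controls. The thermal stability score (sum of log2 fold changes minus the abundance score) was transformed to a z-score; mean of n = 3 experiments.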
# [2] = compound: O=[As]([O-])(O)O.[K+] [potassium arsenate]; assay: as above; conditions: HeLa; arsenate concentration 1 mM
# Method: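 Cellular thermal proteome profiling in HeLa cells treated with 1 mM arsenate for 1 h (DMSO pretreatment), heated to ten temperatures (37-66.3 °C). Soluble protein was quantified by TMT mass spectrometry relative to DMSO controls; the thermal stability score was transformed to a z-score; mean of n = 3 experiments.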
# [3] = arsenate co-treatment: 1 mM arsenate 1 h
# 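Further: each temperature applied for 3 min, abundance score taken as mean log2 fold change at the two lowest temperatures, z-score obtained by mean subtraction and division by SD.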
# Sequence of UniProt Q12834 (Q12834 whole entry): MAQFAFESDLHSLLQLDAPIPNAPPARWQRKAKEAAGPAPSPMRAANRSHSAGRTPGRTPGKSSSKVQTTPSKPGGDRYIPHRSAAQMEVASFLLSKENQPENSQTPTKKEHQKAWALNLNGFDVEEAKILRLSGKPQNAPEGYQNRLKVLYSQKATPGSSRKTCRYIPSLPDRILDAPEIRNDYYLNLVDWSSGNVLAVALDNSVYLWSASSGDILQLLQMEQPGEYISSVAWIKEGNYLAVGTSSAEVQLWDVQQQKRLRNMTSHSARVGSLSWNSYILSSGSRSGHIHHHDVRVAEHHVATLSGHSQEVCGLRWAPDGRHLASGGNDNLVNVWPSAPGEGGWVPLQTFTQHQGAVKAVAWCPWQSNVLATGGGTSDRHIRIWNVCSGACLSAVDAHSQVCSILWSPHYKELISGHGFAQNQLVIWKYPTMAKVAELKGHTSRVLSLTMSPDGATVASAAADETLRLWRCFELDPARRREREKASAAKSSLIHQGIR
# Sequence of UniProt P32320 (P32320 whole entry): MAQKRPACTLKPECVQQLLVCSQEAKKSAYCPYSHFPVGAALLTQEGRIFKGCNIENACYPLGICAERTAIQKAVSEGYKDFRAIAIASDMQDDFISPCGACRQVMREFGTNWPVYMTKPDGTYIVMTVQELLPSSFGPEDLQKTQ
# Sequence of UniProt Q9NYV4 (Q9NYV4 whole entry, looked up): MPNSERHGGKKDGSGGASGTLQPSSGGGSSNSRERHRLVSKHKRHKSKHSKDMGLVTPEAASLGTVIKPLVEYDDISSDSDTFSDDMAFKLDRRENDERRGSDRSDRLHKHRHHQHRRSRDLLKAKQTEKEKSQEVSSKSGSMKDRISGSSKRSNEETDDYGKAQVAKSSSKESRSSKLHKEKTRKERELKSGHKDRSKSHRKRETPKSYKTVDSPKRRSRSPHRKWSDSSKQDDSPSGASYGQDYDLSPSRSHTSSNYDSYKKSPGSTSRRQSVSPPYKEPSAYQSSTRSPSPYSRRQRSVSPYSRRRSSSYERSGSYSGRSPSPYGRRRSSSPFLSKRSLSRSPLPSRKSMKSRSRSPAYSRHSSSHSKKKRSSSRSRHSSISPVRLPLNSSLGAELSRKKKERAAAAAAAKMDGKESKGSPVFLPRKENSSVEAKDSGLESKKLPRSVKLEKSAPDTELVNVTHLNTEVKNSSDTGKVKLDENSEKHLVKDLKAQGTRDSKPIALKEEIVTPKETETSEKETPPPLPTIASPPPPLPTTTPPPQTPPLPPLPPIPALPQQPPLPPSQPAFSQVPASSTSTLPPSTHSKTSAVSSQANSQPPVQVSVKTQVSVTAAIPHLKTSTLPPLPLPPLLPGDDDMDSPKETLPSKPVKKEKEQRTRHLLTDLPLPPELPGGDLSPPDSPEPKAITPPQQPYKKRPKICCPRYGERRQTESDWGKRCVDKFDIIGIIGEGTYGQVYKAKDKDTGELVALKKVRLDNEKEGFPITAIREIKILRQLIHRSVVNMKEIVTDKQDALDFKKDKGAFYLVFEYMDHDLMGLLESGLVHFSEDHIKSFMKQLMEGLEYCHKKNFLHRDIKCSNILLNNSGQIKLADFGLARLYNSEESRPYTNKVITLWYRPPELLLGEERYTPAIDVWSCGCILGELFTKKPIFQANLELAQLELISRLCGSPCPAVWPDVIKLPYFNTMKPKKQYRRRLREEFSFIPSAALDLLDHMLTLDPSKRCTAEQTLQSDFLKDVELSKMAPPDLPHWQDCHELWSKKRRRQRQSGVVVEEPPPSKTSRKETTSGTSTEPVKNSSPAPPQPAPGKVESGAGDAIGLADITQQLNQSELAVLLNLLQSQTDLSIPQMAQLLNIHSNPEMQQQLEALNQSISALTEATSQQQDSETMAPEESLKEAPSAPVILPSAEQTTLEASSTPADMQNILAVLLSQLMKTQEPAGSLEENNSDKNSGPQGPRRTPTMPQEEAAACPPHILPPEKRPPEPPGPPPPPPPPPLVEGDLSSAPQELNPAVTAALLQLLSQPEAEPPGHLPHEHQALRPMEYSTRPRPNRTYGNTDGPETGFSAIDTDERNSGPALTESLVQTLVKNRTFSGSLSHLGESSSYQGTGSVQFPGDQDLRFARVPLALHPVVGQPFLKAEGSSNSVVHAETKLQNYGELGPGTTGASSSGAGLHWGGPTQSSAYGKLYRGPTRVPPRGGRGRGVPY
# Sequence of UniProt Q7L3B6 (Q7L3B6 whole entry): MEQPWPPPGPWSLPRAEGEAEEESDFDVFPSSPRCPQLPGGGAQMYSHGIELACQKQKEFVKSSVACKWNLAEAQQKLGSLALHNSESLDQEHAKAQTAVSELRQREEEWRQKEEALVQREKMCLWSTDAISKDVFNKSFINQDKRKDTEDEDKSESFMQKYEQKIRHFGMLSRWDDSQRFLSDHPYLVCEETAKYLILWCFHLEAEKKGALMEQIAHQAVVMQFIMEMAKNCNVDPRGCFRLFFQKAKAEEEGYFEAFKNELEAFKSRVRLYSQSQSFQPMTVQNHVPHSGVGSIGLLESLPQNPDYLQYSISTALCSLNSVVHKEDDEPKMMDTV
# Sequence of UniProt Q99459 (Q99459 whole entry): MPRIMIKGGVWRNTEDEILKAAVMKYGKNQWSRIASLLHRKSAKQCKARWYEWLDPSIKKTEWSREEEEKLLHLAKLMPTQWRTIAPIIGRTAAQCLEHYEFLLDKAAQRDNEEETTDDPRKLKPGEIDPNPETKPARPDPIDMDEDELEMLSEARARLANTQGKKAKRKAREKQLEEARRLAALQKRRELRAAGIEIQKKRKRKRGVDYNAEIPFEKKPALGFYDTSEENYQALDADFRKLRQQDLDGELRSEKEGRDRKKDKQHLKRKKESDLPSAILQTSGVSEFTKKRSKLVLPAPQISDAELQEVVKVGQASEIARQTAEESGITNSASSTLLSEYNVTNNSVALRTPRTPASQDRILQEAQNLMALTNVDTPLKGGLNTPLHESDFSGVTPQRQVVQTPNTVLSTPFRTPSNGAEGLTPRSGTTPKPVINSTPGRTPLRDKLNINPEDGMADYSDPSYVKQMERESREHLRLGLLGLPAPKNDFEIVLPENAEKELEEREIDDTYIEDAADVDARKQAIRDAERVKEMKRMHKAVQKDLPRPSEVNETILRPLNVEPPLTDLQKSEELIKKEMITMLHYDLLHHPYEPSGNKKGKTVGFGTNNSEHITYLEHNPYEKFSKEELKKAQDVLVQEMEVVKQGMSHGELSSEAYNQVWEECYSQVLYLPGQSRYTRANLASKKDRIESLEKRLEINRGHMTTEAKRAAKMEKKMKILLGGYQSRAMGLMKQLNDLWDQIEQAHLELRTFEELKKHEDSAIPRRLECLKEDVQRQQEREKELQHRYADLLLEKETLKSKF
# Sequence of UniProt P60033 (P60033 whole entry): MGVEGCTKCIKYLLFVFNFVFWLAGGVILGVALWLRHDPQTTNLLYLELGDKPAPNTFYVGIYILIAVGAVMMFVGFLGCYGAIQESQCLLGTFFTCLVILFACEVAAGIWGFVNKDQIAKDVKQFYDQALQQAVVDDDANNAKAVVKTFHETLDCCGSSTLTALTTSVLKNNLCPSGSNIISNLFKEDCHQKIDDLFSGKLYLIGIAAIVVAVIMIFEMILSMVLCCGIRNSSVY
# Sequence of UniProt P08962 (P08962 whole entry): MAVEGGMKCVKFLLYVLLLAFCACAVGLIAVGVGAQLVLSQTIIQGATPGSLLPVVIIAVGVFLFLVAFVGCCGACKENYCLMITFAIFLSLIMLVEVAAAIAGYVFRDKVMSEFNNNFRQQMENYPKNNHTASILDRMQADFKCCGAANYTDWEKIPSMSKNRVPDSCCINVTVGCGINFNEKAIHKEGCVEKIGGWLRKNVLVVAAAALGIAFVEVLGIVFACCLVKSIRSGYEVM
# Sequence of UniProt Q5ZPR3 (Q5ZPR3 whole entry): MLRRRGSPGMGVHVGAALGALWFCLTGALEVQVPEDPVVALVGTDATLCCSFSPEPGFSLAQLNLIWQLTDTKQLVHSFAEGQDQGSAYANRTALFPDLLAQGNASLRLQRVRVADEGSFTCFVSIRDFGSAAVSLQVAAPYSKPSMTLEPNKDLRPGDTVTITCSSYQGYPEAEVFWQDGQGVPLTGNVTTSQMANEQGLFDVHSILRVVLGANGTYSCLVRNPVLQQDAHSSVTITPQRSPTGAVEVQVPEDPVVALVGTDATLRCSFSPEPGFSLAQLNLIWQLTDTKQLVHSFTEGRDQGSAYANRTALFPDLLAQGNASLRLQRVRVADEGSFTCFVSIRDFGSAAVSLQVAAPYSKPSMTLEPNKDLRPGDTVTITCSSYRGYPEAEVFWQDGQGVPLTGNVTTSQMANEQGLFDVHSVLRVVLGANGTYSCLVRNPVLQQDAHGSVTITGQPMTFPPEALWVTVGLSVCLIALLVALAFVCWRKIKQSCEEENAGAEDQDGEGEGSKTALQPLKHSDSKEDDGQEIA
# Sequence of UniProt O14735 (O14735 whole entry): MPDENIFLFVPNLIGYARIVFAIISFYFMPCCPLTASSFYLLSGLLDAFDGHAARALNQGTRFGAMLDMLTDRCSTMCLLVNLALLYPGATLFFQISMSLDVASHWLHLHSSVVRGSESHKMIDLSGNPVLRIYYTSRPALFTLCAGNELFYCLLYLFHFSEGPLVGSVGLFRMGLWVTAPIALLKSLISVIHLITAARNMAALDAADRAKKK
# Sequence of UniProt P19256 (P19256 whole entry): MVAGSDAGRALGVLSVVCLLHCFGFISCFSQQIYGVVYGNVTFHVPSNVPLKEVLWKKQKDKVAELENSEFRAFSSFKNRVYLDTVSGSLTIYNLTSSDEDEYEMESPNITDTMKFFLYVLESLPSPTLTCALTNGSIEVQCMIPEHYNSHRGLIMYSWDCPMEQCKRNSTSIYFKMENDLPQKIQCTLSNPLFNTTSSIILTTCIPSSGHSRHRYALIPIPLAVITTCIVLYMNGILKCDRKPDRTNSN
# Sequence of UniProt O14519 (O14519 whole entry): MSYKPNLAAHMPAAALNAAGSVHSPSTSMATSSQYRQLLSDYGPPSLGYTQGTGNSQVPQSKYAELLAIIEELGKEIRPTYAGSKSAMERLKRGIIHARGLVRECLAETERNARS
# Sequence of UniProt Q8NHZ8 (Q8NHZ8 whole entry): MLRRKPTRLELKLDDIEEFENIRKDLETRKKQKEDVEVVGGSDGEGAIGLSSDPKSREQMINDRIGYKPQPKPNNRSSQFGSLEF
target,measurement,setting,value
CD44 (UniProt P16070),thermal stability z-score,[1]; [3],0.358
same,thermal stability z-score,[1]; arsenate co-treatment: none,0.287
same,thermal stability z-score,[2],0.197
CD46 (UniProt P15529),thermal stability z-score,[1]; [3],-0.681
same,thermal stability z-score,[1]; arsenate co-treatment: none,-0.571
same,thermal stability z-score,[2],-0.443
CD47 (UniProt Q08722),thermal stability z-score,[1]; [3],2.42
same,thermal stability z-score,[1]; arsenate co-treatment: none,1.31
same,thermal stability z-score,[2],0.869
CD55 (UniProt P08174),thermal stability z-score,[1]; [3],0.266
same,thermal stability z-score,[1]; arsenate co-treatment: none,0.169
same,thermal stability z-score,[2],0.446
CD58 (UniProt P19256),thermal stability z-score,[1]; [3],0.0858
same,thermal stability z-score,[1]; arsenate co-treatment: none,0.705
same,thermal stability z-score,[2],0.484
CD59 (UniProt P13987),thermal stability z-score,[1]; [3],0.714
same,thermal stability z-score,[1]; arsenate co-treatment: none,0.698
same,thermal stability z-score,[2],3.07
CD63 (UniProt P08962),thermal stability z-score,[1]; [3],0.764
same,thermal stability z-score,[1]; arsenate co-treatment: none,0.402
same,thermal stability z-score,[2],0.0332
CD70 (UniProt P32970),thermal stability z-score,[1]; [3],1.03
same,thermal stability z-score,[1]; arsenate co-treatment: none,0.355
same,thermal stability z-score,[2],-0.313
CD81 (UniProt P60033),thermal stability z-score,[1]; [3],-0.142
same,thermal stability z-score,[1]; arsenate co-treatment: none,-0.642
same,thermal stability z-score,[2],-0.753
CD97 (UniProt P48960),thermal stability z-score,[1]; [3],0.325
same,thermal stability z-score,[1]; arsenate co-treatment: none,0.346
same,thermal stability z-score,[2],0.472
CD99 (UniProt P14209),thermal stability z-score,[1]; [3],0.901
same,thermal stability z-score,[1]; arsenate co-treatment: none,0.721
same,thermal stability z-score,[2],0.168
CD109 (UniProt Q6YHK3),thermal stability z-score,[1]; [3],-0.877
same,thermal stability z-score,[1]; arsenate co-treatment: none,-1.01
same,thermal stability z-score,[2],1.06
CD151 (UniProt P48509),thermal stability z-score,[1]; [3],1.24
same,thermal stability z-score,[1]; arsenate co-treatment: none,0.682
same,thermal stability z-score,[2],0.131
CD276 (UniProt Q5ZPR3),thermal stability z-score,[1]; [3],0.196
same,thermal stability z-score,[1]; arsenate co-treatment: none,-0.174
same,thermal stability z-score,[2],0.000316
CD320 (UniProt Q9NPF0),thermal stability z-score,[1]; [3],1.65
same,thermal stability z-score,[1]; arsenate co-treatment: none,0.874
same,thermal stability z-score,[2],1.01
CDA (UniProt P32320),thermal stability z-score,[1]; [3],0.868
same,thermal stability z-score,[1]; arsenate co-treatment: none,1
same,thermal stability z-score,[2],1.03
CDAN1 (UniProt Q8IWY9),thermal stability z-score,[1]; [3],-0.217
same,thermal stability z-score,[1]; arsenate co-treatment: none,-0.235
same,thermal stability z-score,[2],-0.113
CDC5L (UniProt Q99459),thermal stability z-score,[1]; [3],0.945
same,thermal stability z-score,[1]; arsenate co-treatment: none,0.573
same,thermal stability z-score,[2],-0.167
CDC6 (UniProt Q99741),thermal stability z-score,[1]; [3],-0.0605
same,thermal stability z-score,[1]; arsenate co-treatment: none,0.0639
same,thermal stability z-score,[2],-0.258
CDC16 (UniProt Q13042),thermal stability z-score,[1]; [3],0.159
same,thermal stability z-score,[1]; arsenate co-treatment: none,0.0509
same,thermal stability z-score,[2],-0.551
CDC20 (UniProt Q12834),thermal stability z-score,[1]; [3],-0.124
same,thermal stability z-score,[1]; arsenate co-treatment: none,-0.245
same,thermal stability z-score,[2],-1.51
CDC23 (UniProt Q9UJX2),thermal stability z-score,[1]; [3],-0.546
same,thermal stability z-score,[1]; arsenate co-treatment: none,-0.315
same,thermal stability z-score,[2],-0.726
CDC26 (UniProt Q8NHZ8),thermal stability z-score,[1]; [3],1.32
same,thermal stability z-score,[1]; arsenate co-treatment: none,0.534
same,thermal stability z-score,[2],0.691
CDC27 (UniProt P30260),thermal stability z-score,[1]; [3],0.122
same,thermal stability z-score,[1]; arsenate co-treatment: none,0.0944
same,thermal stability z-score,[2],-0.522
CDC34 (UniProt P49427),thermal stability z-score,[1]; [3],-0.142
same,thermal stability z-score,[1]; arsenate co-treatment: none,-0.0805
same,thermal stability z-score,[2],0.0868
CDC37 (UniProt Q16543),thermal stability z-score,[1]; [3],0.928
same,thermal stability z-score,[1]; arsenate co-treatment: none,0.616
same,thermal stability z-score,[2],0.222
CDC37L1 (UniProt Q7L3B6),thermal stability z-score,[1]; [3],-0.275
same,thermal stability z-score,[1]; arsenate co-treatment: none,-0.0638
same,thermal stability z-score,[2],0.23
CDC40 (UniProt O60508),thermal stability z-score,[1]; [3],-0.117
same,thermal stability z-score,[1]; arsenate co-treatment: none,0.182
same,thermal stability z-score,[2],0.0978
CDC42 (UniProt P60953),thermal stability z-score,[1]; [3],0.932
same,thermal stability z-score,[1]; arsenate co-treatment: none,0.454
same,thermal stability z-score,[2],0.0976
CDC42BPA (UniProt Q5VT25),thermal stability z-score,[1]; [3],0.504
same,thermal stability z-score,[1]; arsenate co-treatment: none,0.561
same,thermal stability z-score,[2],0.379
CDC42BPB (UniProt Q9Y5S2),thermal stability z-score,[1]; [3],-0.57
same,thermal stability z-score,[1]; arsenate co-treatment: none,-0.124
same,thermal stability z-score,[2],-0.221
CDC42EP1 (UniProt Q00587),thermal stability z-score,[1]; [3],-0.844
same,thermal stability z-score,[1]; arsenate co-treatment: none,-0.776
same,thermal stability z-score,[2],0.213
CDC42EP4 (UniProt Q9H3Q1),thermal stability z-score,[1]; [3],-0.323
same,thermal stability z-score,[1]; arsenate co-treatment: none,-0.652
same,thermal stability z-score,[2],0.499
CDC42SE1 (UniProt Q9NRR8),thermal stability z-score,[1]; [3],-0.0857
same,thermal stability z-score,[1]; arsenate co-treatment: none,0.383
same,thermal stability z-score,[2],-0.154
CDC45 (UniProt O75419),thermal stability z-score,[1]; [3],0.0843
same,thermal stability z-score,[1]; arsenate co-treatment: none,0.0302
same,thermal stability z-score,[2],-0.457
CDC73 (UniProt Q6P1J9),thermal stability z-score,[1]; [3],0.521
same,thermal stability z-score,[1]; arsenate co-treatment: none,0.541
same,thermal stability z-score,[2],0.234
CDC123 (UniProt O75794),thermal stability z-score,[1]; [3],0.8
same,thermal stability z-score,[1]; arsenate co-treatment: none,-0.214
same,thermal stability z-score,[2],3.29
CDCA3 (UniProt Q99618),thermal stability z-score,[1]; [3],0.196
same,thermal stability z-score,[1]; arsenate co-treatment: none,0.0335
same,thermal stability z-score,[2],-0.233
CDH10 (UniProt Q9Y6N8),thermal stability z-score,[1]; [3],0.493
same,thermal stability z-score,[1]; arsenate co-treatment: none,0.14
same,thermal stability z-score,[2],1.02
CDIPT (UniProt O14735),thermal stability z-score,[1]; [3],1.05
same,thermal stability z-score,[1]; arsenate co-treatment: none,0.638
same,thermal stability z-score,[2],-0.187
CDK1 (UniProt P06493),thermal stability z-score,[1]; [3],0.163
same,thermal stability z-score,[1]; arsenate co-treatment: none,-0.0348
same,thermal stability z-score,[2],0.246
CDK2 (UniProt P24941),thermal stability z-score,[1]; [3],1.12
same,thermal stability z-score,[1]; arsenate co-treatment: none,0.288
same,thermal stability z-score,[2],0.48
CDK2AP1 (UniProt O14519),thermal stability z-score,[1]; [3],-0.0893
same,thermal stability z-score,[1]; arsenate co-treatment: none,-0.224
same,thermal stability z-score,[2],-0.113
CDK4 (UniProt P11802),thermal stability z-score,[1]; [3],1.15
same,thermal stability z-score,[1]; arsenate co-treatment: none,1.03
same,thermal stability z-score,[2],0.783
CDK5 (UniProt Q00535),thermal stability z-score,[1]; [3],-0.0682
same,thermal stability z-score,[1]; arsenate co-treatment: none,0.212
same,thermal stability z-score,[2],0.0671
CDK5RAP1 (UniProt Q96SZ6),thermal stability z-score,[1]; [3],0.128
same,thermal stability z-score,[1]; arsenate co-treatment: none,0.198
same,thermal stability z-score,[2],0.157
CDK5RAP2 (UniProt Q96SN8),thermal stability z-score,[1]; [3],-0.149
same,thermal stability z-score,[1]; arsenate co-treatment: none,-0.131
same,thermal stability z-score,[2],-0.112
CDK5RAP3 (UniProt Q96JB5),thermal stability z-score,[1]; [3],-0.0376
same,thermal stability z-score,[1]; arsenate co-treatment: none,0.162
same,thermal stability z-score,[2],0.406
CDK6 (UniProt Q00534),thermal stability z-score,[1]; [3],-0.218
same,thermal stability z-score,[1]; arsenate co-treatment: none,0.136
same,thermal stability z-score,[2],0.123
CDK7 (UniProt P50613),thermal stability z-score,[1]; [3],-0.000906
same,thermal stability z-score,[1]; arsenate co-treatment: none,-0.0377
same,thermal stability z-score,[2],-0.0106
CDK8 (UniProt P49336),thermal stability z-score,[1]; [3],-0.0332
same,thermal stability z-score,[1]; arsenate co-treatment: none,-0.822
same,thermal stability z-score,[2],-1.66
CDK9 (UniProt P50750),thermal stability z-score,[1]; [3],-0.226
same,thermal stability z-score,[1]; arsenate co-treatment: none,-0.263
same,thermal stability z-score,[2],0.544
CDK12 (UniProt Q9NYV4),thermal stability z-score,[1]; [3],-0.233
same,thermal stability z-score,[1]; arsenate co-treatment: none,0.0238
same,thermal stability z-score,[2],-0.614
CDK13 (UniProt Q14004),thermal stability z-score,[1]; [3],0.155
same,thermal stability z-score,[1]; arsenate co-treatment: none,-0.0381
same,thermal stability z-score,[2],-0.0661
CDK16 (UniProt Q00536),thermal stability z-score,[1]; [3],0.0459
same,thermal stability z-score,[1]; arsenate co-treatment: none,-0.3
same,thermal stability z-score,[2],0.0532
